# Tested on: human corneal fibroblasts (HCF)
# Experiment: Time course of nuclear translocation (CD44-ICD, TAK1, JNK1, Cyclin D1, p75NTR) and CD44 immunoprecipitation in HCF treated with HC-HA/PTX3±TGFβ1±inhibitors
# Format: cell-based
# Conditions: HC-HA/PTX3+TGFβ1 with inhibitor 10 μM; for nuclear translocation of CD44-ICD at 5 min: immunostaining and Western blotting
# Protocol: Human corneal fibroblasts (P3) were seeded on plastics with or without immobilized HC-HA/PTX3 complex for 72 h in DMEM+10% FBS, then serum starved for 24 h and treated with or without TGFβ1 for 24 h before being harvested for mRNA quantitation or immunostaining. For determination of protein of TGFβ receptor or p75NTR, the cells were treated with or without TGF-β1 for 48 h before collection of protein samples because the protein expression lags behind mRNA expression. For TGF-β1 ELISA, the cells were treated with or without TGF-β1 for 24 h, and then cultured in the fresh medium for another 24 h. The supernatants were collected for TGFβ1 ELISA. For TGFβ2 and TGFβ3 ELISA, the cells were treated with or without TGFβ1 for 48 h. Certain HCF were seeded on glass in DMEM+10% FBS for 24 h, then in DMEM+ITS (insulin-transferrin-selenium) for 24 h, treated with/without PBS or hyaluronic acid (HA) or HC-HA/PTX3±TGFβ1 (10 ng/ml)±Marimastat (10 μM) or ±DAPT (10 μM) or ±both for 0, 5, 15, 30 and 45 minutes before being harvested for immunostaining of CD44-ICD, JNK1, Cyclin D1 and p75NTR and for 5 minutes before being harvested for Western blotting of cytoplasmic and nuclear CD44-ICD, active MT1-MMP, and active γ-secretase after compartmental separation of the cellular components.
# HCF, induced human corneal endothelial cells (HCEC), and HCEC monolayer cultures were air-dried and fixed in 4% formaldehyde, pH 7.0, for 15 min at room temperature, rehydrated in PBS, incubated with 0.2% Triton X-100 for 15 min, and rinsed three times with PBS for 5 min each. After incubation with 2% BSA to block non-specific staining for 30 min, they were incubated with the desired first antibody (all at 1:50 dilution) for 16 h at 4° C. After three washes with PBS, they were incubated with corresponding Alexa-Fluor-conjugated secondary IgG (all 1:100 dilutions) for 60 min. The samples were then counterstained with Hoechst 33342 and analyzed with Zeiss LSM 700 confocal microscope (Thornhood, N.Y.). Corresponding mouse and rabbit sera were used as negative controls for primary monoclonal and polyclonal antibodies, respectively.
# The native CD44 protein was immune-precipitated by Immunoprecipitation Kit (Abcam, ab206996) with CD44 antibody (Abcam, ab157107) following the vendor's instructions.
# Cell lysates were prepared in radioimmunoprecipitation assay (RIPA) buffer or non-denature lysis buffer and resolved on 4-15% (w/v) gradient acrylamide gels for Western blotting. […] Immunoreactive proteins were detected with Western Lighting Chemiluminesence.
Structure (SMILES),"nuclear translocation of TAK1, JNK1, Cyclin D1 and p75NTR at later time points",nuclear translocation of CD44-ICD at 5 min
C[C@H](NC(=O)Cc1cc(F)cc(F)c1)C(=O)N[C@H](C(=O)OC(C)(C)C)c1ccccc1 [DAPT],inhibited,inhibited
CNC(=O)[C@@H](NC(=O)[C@H](CC(C)C)[C@H](O)C(=O)NO)C(C)(C)C [Marimastat],inhibited,inhibited

# — patent US20210386791A1, “METHODS OF CELLULAR REPROGRAMMING” (TissueTech, Inc., priority 2018, published 2021)
